# Experimental data reported in publication PMC4004800, “Preclinical evaluation of marketed sodium channel blockers in a rat model of myotonia discloses promising antimyotonic drugs” (Experimental Neurology, 2014).
# Target: T1, hNav1.4 (human skeletal muscle sodium channel) (Homo sapiens, UniProt P35499)
# T1 construct: gene SCN4A; alpha subunit permanently transfected in HEK293 cells; no beta subunit mentioned
# Experiment: whole-cell patch clamp, sodium current in HEK293
# Format: cell-based
# Details: holding potential -90 mV, 5 ms pulses to -30 mV at 50 Hz (myotonia-like), tonic + use-dependent block; read by eye from curve; 20-22 °C, pH 7.4; read-out: IC50 (μM) / 50 Hz, hp - 90 mV
# From the text: whole-cell patch clamp, sodium current in HEK293 on hNav1.4 (human skeletal muscle sodium channel)
# T1 sequence (P35499 whole entry): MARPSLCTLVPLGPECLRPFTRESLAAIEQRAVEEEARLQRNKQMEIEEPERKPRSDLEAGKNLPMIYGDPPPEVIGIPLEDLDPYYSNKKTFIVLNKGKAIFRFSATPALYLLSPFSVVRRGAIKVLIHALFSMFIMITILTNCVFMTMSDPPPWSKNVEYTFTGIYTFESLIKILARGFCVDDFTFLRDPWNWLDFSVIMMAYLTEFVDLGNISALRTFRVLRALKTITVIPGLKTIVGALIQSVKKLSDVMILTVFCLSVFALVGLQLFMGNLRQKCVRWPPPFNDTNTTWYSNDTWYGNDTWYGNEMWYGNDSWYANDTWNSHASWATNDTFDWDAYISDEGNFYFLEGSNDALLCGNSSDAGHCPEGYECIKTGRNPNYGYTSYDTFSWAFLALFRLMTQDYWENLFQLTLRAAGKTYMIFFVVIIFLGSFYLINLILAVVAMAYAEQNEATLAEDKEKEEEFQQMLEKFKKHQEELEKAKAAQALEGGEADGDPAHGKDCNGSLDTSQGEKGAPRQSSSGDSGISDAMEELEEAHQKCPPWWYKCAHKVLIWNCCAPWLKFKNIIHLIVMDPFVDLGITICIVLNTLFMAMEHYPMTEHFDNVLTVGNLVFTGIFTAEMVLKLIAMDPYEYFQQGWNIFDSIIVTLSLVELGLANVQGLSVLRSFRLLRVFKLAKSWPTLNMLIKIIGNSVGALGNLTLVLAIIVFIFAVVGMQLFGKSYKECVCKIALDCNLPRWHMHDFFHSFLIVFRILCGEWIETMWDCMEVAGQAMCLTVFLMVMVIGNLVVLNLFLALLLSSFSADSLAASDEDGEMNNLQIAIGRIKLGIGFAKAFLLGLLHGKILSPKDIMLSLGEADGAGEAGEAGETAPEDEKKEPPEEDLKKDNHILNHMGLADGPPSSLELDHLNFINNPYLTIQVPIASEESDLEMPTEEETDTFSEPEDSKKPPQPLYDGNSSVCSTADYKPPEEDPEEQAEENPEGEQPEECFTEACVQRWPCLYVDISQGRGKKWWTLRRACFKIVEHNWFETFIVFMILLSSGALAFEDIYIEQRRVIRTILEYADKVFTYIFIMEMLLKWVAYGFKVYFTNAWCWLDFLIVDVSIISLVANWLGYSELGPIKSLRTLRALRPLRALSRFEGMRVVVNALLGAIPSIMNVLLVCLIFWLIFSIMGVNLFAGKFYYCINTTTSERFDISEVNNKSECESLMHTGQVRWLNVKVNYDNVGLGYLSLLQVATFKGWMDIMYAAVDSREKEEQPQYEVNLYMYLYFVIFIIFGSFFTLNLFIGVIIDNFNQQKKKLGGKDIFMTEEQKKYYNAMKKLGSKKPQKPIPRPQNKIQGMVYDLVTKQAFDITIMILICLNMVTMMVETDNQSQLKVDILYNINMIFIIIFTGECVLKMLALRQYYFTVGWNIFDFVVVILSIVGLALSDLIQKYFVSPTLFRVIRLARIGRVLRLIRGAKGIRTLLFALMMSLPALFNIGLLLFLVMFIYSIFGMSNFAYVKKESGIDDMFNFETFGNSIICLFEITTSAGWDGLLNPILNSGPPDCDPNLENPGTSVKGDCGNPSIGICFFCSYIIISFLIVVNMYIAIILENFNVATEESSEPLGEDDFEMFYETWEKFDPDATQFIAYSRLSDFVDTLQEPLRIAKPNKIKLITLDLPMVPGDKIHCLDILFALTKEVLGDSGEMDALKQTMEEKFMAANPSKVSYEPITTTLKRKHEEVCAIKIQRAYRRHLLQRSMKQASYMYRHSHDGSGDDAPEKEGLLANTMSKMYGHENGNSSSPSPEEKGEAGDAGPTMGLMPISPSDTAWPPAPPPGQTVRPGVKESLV
row,IC50 [µM],Molecule
1,~0.3,Lubeluzole

# Same assay, conditions: read-out: IC50 (μM) / 50 Hz, hp - 90 mV
row,Molecule,IC50 [µM]
1,NC(=O)N1c2ccccc2C2OC2c2ccccc21 (stereo not shown) [epo-CBZ],~70
2,NC(=O)N1c2ccccc2C=Cc2ccccc21 [Carbamazepine],~100
3,Cc1cccc(C)c1OCC(C)N (stereo not shown) [Mexiletine],~20

# More lines, now with the values ahead:
row,IC50 [µM],Molecule
1,~4,O=C(NCC1CCCCN1)c1cc(OCC(F)(F)F)ccc1OCC(F)(F)F (stereo not shown) [Flecainide]
2,~1.5,CCCNCC(O)COc1ccccc1C(=O)CCc1ccccc1 (stereo not shown) [Propafenone]
3,~0.9,Nc1nc2ccc(OC(F)(F)F)cc2s1 [Riluzole]
